Test results reported in patent publication US9481654B2, “Compositions and methods for inhibition of the JAK pathway” (Rigel Pharmaceuticals, Inc., priority 2006, dated 2016).
Structures can show the parent of a compound that is named as a salt.

Columns and labels:
[1] = system: IL-4 stimulated CD23 upregulation in human Ramos B cells (JAK-1/JAK-3, Stat-6); experiment: Assay for Ramos B-Cell Line Stimulated with IL-4 (CD23 upregulation, FACS); assay type: cell-based; conditions: Table III Example 3
Procedure, shortened: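 Flow cytometry of CD23 staining after 20-24 h IL-4 stimulation (50 units/mL final) of human Ramos B cells in RPMI with 5% serum. Cells, 5×10^4 per point, received compound or DMSO vehicle for 1 h at 37° C prior to stimulation.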

[2] = system: primary human T-cells (IL-2 induced proliferation, JAK-1/JAK-3, Stat-5); experiment: Primary Human T-Cell Proliferation Assay Stimulated with IL-2 (CellTiter-Glo); assay type: cell-based; conditions: Table III Example 4
Procedure: In this assay, primary human T-cells derived from peripheral blood and pre-activated through stimulation of the T-cell receptor and CD28, proliferate in culture in response to the cytokine Interleukin-2 (IL-2). This proliferative response is dependent on the activation of JAK1 and JAK3 tyrosine kinases, which phosphorylate and activate the transcription factor Stat-5. The primary human T-cells are incubated with the 2,4-pyrimidinediamine compounds in the presence of IL-2 for 72 hours, and at the assay endpoint intracellular ATP concentrations are measured to assess cell viability. A reduction in cell proliferation compared to control conditions is indicative of inhibition of the JAK kinase pathway.
Primary human T-cells derived from peripheral blood and pre-activated through stimulation of the T-cell receptor and CD28 proliferate in vitro in response to the cytokine Interleukin-2 (IL-2). This proliferative response is dependent on the activation of JAK-1 and JAK-3 tyrosine kinases, which phosphorylate and activate the transcription factor Stat-5.
Human primary T cells were prepared as follows. […] The lymphocytes at the serum: ficoll interface were recovered and washed twice with 5 volumes of PBS. […] The primary T-cells were stimulated for 3 to 4 days, then transferred to a fresh flask and maintained in RPMI with 10% FBS and 40 U/mL IL-2.
Primary T-cells were washed twice with PBS to remove the IL-2 and resuspended in Yssel's medium at 2×10^6 cells/mL. 50 μL of cell suspension containing 80 U/mL IL-2 was added to each well of a flat bottom 96 well black plate. For the unstimulated control, IL-2 was omitted from the last column on the plate. […] 50 μL of 2× compound was added per well in duplicate and the cells were allowed to proliferate for 72 hours at 37° C.
Proliferation was measured using CellTiter-Glo® Luminescent Cell Viability Assay (Promega), which determines the number of viable cells in culture based on quantitation of the ATP present, as an indicator of metabolically active cells. The substrate was thawed and allowed to come to room temperature. After mixing the Cell Titer-Glo reagent and diluent together, 100 μL was added to each well. The plates were mixed on an orbital shaker for two minutes to induce lysis and incubated at room temperature for an additional ten minutes to allow the signal to equilibrate.

SMILES	IC50 [1]	IC50 [2]	IC50 ([1]; Homo sapiens, Ramos)	IC50 ([2]; Homo sapiens, T-cell)
NS(=O)(=O)c1ccc(Nc2ncc(F)c(Nc3ccc(CNS(=O)(=O)c4cccs4)cc3)n2)cc1 [Compound I-35, N2-(4-aminosulfonyl)phenyl-5-fluoro-N4-[4-(thiophen-2-yl)sulfonylaminomethyl]phenyl-2,4-pyrimidinediamine]	133 nM	436 nM	–	–
C#CCNS(=O)(=O)Cc1cccc(Nc2nc(Nc3ccc(S(N)(=O)=O)cc3)ncc2F)c1 [Compound I-2, N2-(4-Aminosulfonylphenyl)-5-fluoro-N4-[3-(prop-2-ynylaminosulfonylmethyl)phenyl]-2,4-pyrimidinediamine]	–	–	647 nM	3730 nM
Cc1cnc(Nc2cccc(S(=O)(=O)Nc3ccccc3)c2)nc1Nc1cccc(CNS(=O)(=O)C2CC2)c1 [Compound I-156, N4-(3-cyclopropylsulfonylaminomethyl)phenyl-5-methyl-N2-(3-phenylaminosulfonyl)phenyl-2,4-pyrimidinediamine]	266 nM	1080 nM	–	–
Cc1cnc(Nc2ccc(S(=O)(=O)NC3CCN(C)CC3)cc2)nc1Nc1ccc(CNS(=O)(=O)C2CC2)cc1 [Compound I-151, N4-(4-cyclopropylsulfonylaminomethyl)phenyl-5-methyl-N2-[4-(1-methylpiperidin-4-yl)aminosulfonyl]phenyl-2,4-pyrimidinediamine]	353 nM	1080 nM	–	–
Cc1cnc(Nc2ccc(S(=O)(=O)NCc3ccncc3)cc2)nc1Nc1ccc(CNS(=O)(=O)C2CC2)cc1 [Compound I-168, N4-(4-cyclopropylsulfonylaminomethyl)phenyl-5-methyl-N2-[4-(4-pyridylmethyl)aminosulfonyl]phenyl-2,4-pyrimidinediamine]	278 nM	347 nM	–	–
Cc1cnc(Nc2cccc(S(=O)(=O)NCc3ccccc3)c2)nc1Nc1cccc(CNS(=O)(=O)C2CC2)c1 [Compound I-158, N2-(3-benzylaminosulfonyl)phenyl-N4-(3-cyclopropylsulfonylaminomethyl)phenyl-5-methyl-2,4-pyrimidinediamine]	300 nM	531 nM	–	–
Cc1cnc(Nc2ccc(S(=O)(=O)Nc3cccnc3)cc2)nc1Nc1ccc(CNS(=O)(=O)C2CC2)cc1 [Compound I-171, N4-(4-cyclopropylsulfonylaminomethyl)phenyl-5-methyl-N2-[4-(3-pyridyl)aminosulfonyl]phenyl-2,4-pyrimidinediamine]	19500 nM	42300 nM	–	–
NS(=O)(=O)c1cc(Nc2ncc(F)c(Nc3ccc(CNS(=O)(=O)C4CC4)cc3)n2)cc(S(N)(=O)=O)c1 [Compound I-82, N4-(4-cyclopropylsulfonylaminomethyl)phenyl-N2-(3,5-diaminosulfonyl)phenyl-5-fluoro-2,4-pyrimidinediamine]	1100 nM	964 nM	–	–
Cc1cnc(Nc2ccc(S(=O)(=O)Nc3ccccc3)cc2)nc1Nc1ccc(CNS(=O)(=O)C2CC2)cc1 [Compound I-149, N4-(4-cyclopropylsulfonylaminomethyl)phenyl-5-methyl-N2-(4-phenylaminosulfonyl)phenyl-2,4-pyrimidinediamine]	82.2 nM	190 nM	–	–
Cc1cnc(Nc2ccc(S(=O)(=O)NC3CCN(C)CC3)cc2)nc1Nc1cccc(CNS(=O)(=O)C2CC2)c1 [Compound I-159, N4-(3-cyclopropylsulfonylaminomethyl)phenyl-5-methyl-N2-[4-(1-methylpiperidin-4-yl)aminosulfonyl]phenyl-2,4-pyrimidinediamine]	539 nM	7960 nM	–	–
Cc1cnc(Nc2cccc(S(=O)(=O)NC(=O)CN)c2)nc1Nc1cccc(CNS(=O)(=O)C2CC2)c1 [Compound I-133, N2-[3-N-(2-amino-1-oxoethyl)aminosulfonyl]phenyl-N4-(3-cyclopropylsulfonylaminomethyl)phenyl-5-methyl-2,4-pyrimidinediamine hydrogen chloride salt]	715 nM	1210 nM	–	–
CC(=O)Nc1nc(C)c(S(=O)(=O)NCc2ccc(Nc3nc(Nc4cccc(S(N)(=O)=O)c4)ncc3F)cc2)s1 [Compound I-42, N4-[4-(2-acetylamino-4-methylthiazol-5-yl)sulfonylaminomethyl]phenyl-N2-(3-aminosulfonyl)phenyl-5-fluoro-2,4-pyrimidinediamine]	1150 nM	3220 nM	–	–
C#CCNS(=O)(=O)Cc1ccc(Nc2nc(Nc3ccc(S(N)(=O)=O)cc3)ncc2F)cc1 [Compound I-6, N2-(4-Aminosulfonylphenyl)-5-fluoro-N4-[4-(prop-2-ynylaminosulfonylmethyl)phenyl]-2,4-pyrimidinediamine]	–	–	559 nM	536 nM
C#CCNS(=O)(=O)c1cccc(Nc2ncc(F)c(Nc3ccc(CNS(=O)(=O)C4CC4)cc3)n2)c1 [Compound I-7, 5-Fluoro-N4-[4-(cyclopropylsulfonylaminomethyl)phenyl]-N2-[3-(prop-2-ynylaminosulfonyl)phenyl]-2,4-pyrimidinediamine]	–	–	73.5 nM	113 nM
Cc1cnc(Nc2ccc(S(=O)(=O)NCc3ccccc3)cc2)nc1Nc1cccc(CNS(=O)(=O)C2CC2)c1 [Compound I-157, N2-(4-benzylaminosulfonyl)phenyl-N4-(3-cyclopropylsulfonylaminomethyl)phenyl-5-methyl-2,4-pyrimidinediamine]	250 nM	1100 nM	–	–
Cc1ccc(Nc2ncc(F)c(Nc3cccc(CS(=O)(=O)NC4CCN(C)CC4)c3)n2)cc1S(N)(=O)=O [Compound I-107, N2-(3-Aminosulfonyl-4-methylphenyl)-5-fluoro-N4-[3-(1-methylpiperdin-4-ylaminosulfonylmethylene)phenyl]-2,4-pyrimidinediamine]	2930 nM	18100 nM	–	–
CS(=O)(=O)CS(=O)(=O)NCc1ccc(Nc2nc(Nc3ccc(S(N)(=O)=O)cc3)ncc2F)cc1 [Compound I-85, N2-(4-aminosulfonyl)phenyl-5-fluoro-N4-[4-(methylsulfonylmethylsulfonylamino)methyl]phenyl-2,4-pyrimidinediamine]	3100 nM	3900 nM	–	–
CCS(=O)(=O)NCc1ccc(Nc2nc(Nc3ccc(S(N)(=O)=O)cc3)ncc2F)cc1Cl [Compound I-74, N2-(4-aminosulfonyl)phenyl-N4-(3-chloro-4-ethylsulfonylaminomethyl)phenyl-5-fluoro-2,4-pyrimidinediamine]	362 nM	2250 nM	–	–
CC(=O)Nc1nc(C)c(S(=O)(=O)NCc2ccc(Nc3nc(Nc4ccc(C)c(S(N)(=O)=O)c4)ncc3F)cc2)s1 [Compound I-44, N4-[4-(2-acetylamino-4-methylthiazol-5-yl)sulfonylaminomethyl]phenyl-N2-(3-aminosulfonyl-4-methyl)phenyl-5-fluoro-2,4-pyrimidinediamine]	1220 nM	4160 nM	–	–
